One block for each compound: values may come before it. Calls of active or inactive are those of the source. No cut-off for these calls is given here.
Columns and labels:
MDA-MB-231 = assay: cells; details: Homo sapiens, MDA-MB-231, 120 h
MCF7 [1] = assay: cells; details: Homo sapiens, MCF7, 120 h
[2] = target: Proto-oncogene tyrosine-protein kinase receptor Ret (Homo sapiens, UniProt P07949); assay: Inhibition of human RET using poly[Glu,Tyr]4:1 as substrate in presence of [gamma-33P]ATP
[3] = target: Serine/threonine-protein kinase mTOR (Homo sapiens, UniProt P42345); assay: Inhibition of human mTOR using poly[Glu,Tyr]4:1 as substrate in presence of [gamma-33P]ATP
MCF7 [4] = assay: Antiproliferative activity against human MCF7 cells assessed as reduction in cell confluence level at […] after 5 days by microscopy based time-lapse imaging assay; type: functional
[5] = target: Platelet-derived growth factor receptor alpha (Homo sapiens, UniProt P16234); assay: Inhibition of human PDGFRalpha using poly[Glu,Tyr]4:1 as substrate in presence of [gamma-33P]ATP
Platelet-derived growth factor receptor alpha, sequence (P16234 whole entry): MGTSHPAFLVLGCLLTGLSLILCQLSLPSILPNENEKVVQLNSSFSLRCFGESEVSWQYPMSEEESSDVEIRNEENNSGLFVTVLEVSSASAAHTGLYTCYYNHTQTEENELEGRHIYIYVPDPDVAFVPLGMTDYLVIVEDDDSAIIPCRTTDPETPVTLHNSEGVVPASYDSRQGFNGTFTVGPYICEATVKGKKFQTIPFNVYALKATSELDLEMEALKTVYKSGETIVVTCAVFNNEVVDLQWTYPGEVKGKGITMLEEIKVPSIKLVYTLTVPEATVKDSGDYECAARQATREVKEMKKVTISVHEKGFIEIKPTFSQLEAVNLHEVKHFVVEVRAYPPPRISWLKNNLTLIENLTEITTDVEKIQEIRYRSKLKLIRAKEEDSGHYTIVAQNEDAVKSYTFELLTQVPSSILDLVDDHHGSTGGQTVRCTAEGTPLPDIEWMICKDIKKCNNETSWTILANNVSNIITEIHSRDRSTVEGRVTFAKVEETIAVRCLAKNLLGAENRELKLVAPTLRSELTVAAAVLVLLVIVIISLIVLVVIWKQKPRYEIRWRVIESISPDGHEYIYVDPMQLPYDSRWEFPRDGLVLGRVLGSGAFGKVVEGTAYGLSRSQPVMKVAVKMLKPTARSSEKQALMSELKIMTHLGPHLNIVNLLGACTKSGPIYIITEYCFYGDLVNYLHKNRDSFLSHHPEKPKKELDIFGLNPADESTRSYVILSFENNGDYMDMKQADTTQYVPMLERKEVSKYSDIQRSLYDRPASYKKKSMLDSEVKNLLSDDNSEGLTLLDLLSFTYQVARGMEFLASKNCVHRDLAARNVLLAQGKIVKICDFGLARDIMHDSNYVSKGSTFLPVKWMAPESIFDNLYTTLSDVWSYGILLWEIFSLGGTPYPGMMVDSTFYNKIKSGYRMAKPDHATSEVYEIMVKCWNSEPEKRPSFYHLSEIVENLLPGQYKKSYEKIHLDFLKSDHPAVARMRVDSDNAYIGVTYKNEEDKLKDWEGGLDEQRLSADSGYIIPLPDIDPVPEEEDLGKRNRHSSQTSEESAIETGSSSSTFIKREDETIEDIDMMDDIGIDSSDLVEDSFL

[6] = target: Mast/stem cell growth factor receptor Kit (Homo sapiens, UniProt P10721); assay: Inhibition of human KIT using poly[Glu,Tyr]4:1 as substrate in presence of [gamma-33P]ATP
Mast/stem cell growth factor receptor Kit, sequence (P10721 whole entry): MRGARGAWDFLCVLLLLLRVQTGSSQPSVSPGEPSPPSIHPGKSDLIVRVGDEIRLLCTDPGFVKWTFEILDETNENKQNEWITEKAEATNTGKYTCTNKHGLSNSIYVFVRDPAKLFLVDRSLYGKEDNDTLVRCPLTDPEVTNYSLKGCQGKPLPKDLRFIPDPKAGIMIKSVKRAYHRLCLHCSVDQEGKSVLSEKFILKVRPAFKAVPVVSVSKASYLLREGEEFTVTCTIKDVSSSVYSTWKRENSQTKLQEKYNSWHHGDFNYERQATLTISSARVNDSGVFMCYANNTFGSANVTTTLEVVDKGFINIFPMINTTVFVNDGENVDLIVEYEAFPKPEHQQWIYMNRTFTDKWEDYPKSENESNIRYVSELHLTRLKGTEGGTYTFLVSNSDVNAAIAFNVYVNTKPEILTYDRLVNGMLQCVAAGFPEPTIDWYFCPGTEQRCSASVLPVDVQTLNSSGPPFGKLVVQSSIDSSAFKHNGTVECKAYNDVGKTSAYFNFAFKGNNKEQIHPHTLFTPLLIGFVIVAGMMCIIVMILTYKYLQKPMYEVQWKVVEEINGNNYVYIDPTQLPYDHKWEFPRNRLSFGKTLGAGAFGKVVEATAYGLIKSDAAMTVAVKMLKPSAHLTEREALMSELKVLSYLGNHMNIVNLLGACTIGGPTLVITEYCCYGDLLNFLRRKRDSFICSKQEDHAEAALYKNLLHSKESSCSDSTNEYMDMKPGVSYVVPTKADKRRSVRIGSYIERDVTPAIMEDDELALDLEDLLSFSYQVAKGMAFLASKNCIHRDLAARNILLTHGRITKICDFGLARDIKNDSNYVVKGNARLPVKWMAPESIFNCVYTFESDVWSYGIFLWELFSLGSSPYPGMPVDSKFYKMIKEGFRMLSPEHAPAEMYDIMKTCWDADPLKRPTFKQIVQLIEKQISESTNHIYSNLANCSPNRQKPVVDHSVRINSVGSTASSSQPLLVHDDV

MCF7 [7] = assay: Antiproliferative activity against human MCF7 cells assessed as cell death at […] after 48 to 120 hrs by microscopy based time-lapse imaging assay; type: functional

Proto-oncogene tyrosine-protein kinase receptor Ret, sequence (P07949 whole entry): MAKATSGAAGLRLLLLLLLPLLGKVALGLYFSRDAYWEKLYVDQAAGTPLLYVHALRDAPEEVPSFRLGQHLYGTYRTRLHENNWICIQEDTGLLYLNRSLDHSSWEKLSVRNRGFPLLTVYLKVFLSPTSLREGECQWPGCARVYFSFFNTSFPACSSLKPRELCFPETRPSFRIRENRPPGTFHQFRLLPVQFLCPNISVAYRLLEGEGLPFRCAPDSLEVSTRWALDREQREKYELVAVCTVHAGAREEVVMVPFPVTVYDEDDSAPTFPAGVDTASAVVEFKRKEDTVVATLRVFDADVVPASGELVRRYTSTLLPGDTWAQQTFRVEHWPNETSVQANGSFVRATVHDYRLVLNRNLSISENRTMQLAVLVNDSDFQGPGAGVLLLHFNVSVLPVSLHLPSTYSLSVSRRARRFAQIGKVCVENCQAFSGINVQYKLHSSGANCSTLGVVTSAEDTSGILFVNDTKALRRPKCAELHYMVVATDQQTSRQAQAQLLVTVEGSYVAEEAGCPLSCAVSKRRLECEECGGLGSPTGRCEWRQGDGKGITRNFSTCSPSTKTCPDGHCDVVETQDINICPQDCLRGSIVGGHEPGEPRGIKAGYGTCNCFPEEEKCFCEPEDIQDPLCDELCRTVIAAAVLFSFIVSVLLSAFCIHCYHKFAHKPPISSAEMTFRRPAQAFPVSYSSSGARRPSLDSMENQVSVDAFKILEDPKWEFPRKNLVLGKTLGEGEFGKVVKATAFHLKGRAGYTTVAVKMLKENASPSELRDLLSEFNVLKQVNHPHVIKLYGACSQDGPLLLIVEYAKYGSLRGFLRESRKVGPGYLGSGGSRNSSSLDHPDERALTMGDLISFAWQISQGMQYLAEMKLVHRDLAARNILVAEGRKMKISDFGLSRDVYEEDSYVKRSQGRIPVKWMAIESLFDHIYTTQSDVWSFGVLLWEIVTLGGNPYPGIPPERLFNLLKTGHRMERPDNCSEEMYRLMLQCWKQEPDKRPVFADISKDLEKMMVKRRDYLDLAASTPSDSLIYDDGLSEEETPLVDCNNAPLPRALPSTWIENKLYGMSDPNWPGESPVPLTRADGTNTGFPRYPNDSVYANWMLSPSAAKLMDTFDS

Compound: COc1cc(-c2nn(CCN3CCC(OC)CC3)c3ncnc(N)c23)ccc1NC(=O)OC(C)(C)C
EC50 (MDA-MB-231): 1.96 µM

Compound: CN(C)CC1CCN(CCn2nc(-c3cnc4[nH]ccc4c3)c3c(N)ncnc32)CC1
IC50 [3]: 8.57 µM
Activity (MCF7 [7]): Active
IC50 [5]: > 10 µM
IC50 [6]: > 10 µM

Compound: COc1ccc(-c2nn(CCN3CCC(N(C)C)CC3)c3ncnc(N)c23)cc1NC(=O)OC(C)(C)C
EC50 (MDA-MB-231): 28.6 µM

Compound: CN(C)C1CCN(CCn2nc(-c3ccc4c(ccn4C(=O)OC(C)(C)C)c3)c3c(N)ncnc32)CC1
EC50 (MDA-MB-231): 4.15 µM

Compound: COc1cc(-c2nn(CCN3CCCC(N(C)C)C3)c3ncnc(N)c23)ccc1NC(=O)OC(C)(C)C (centres undefined)
EC50 (MDA-MB-231): 1.99 µM

Compound: CN(C)C1CCN(CCn2nc(-c3ccc(NC(=O)OC(C)(C)C)nc3)c3c(N)ncnc32)CC1
EC50 (MDA-MB-231): 17.7 µM

Compound: Cc1ccc(-c2nn(CCN3CCN(CCN(C)C)CC3)c3ncnc(N)c23)cc1
Activity (MCF7 [4]): Active

Compound: Cc1ccc(-c2nn(CCN3CCN(C)CC3)c3ncnc(N)c23)cc1
Activity (MCF7 [4]): Active

Continued, in another order:

EC50 (MCF7 [1]): 57.1 µM
Compound: CN(C)CC1CCN(CCn2nc(-c3ccoc3)c3c(N)ncnc32)CC1

EC50 (MCF7 [1]): 30.9 µM
Compound: CCOC(Cn1nc(-c2ccc(C)cc2)c2c(N)ncnc21)OCC

IC50 [2]: > 10 µM
IC50 [3]: > 10 µM
IC50 [5]: > 10 µM
IC50 [6]: > 10 µM
Compound: Cc1ccc(-c2nn(CCN3CCC(CN(C)C)CC3)c3ncnc(N)c23)cc1
Activity (MCF7 [4]): Active

EC50 (MDA-MB-231): 26.8 µM
Compound: CN(C)C1CCN(CCn2nc(-c3cccc(NC(=O)OC(C)(C)C)c3)c3c(N)ncnc32)CC1

EC50 (MDA-MB-231): 6.72 µM
Compound: COc1cc(-c2nn(CCN3CCC(N(C)C)CC3)c3ncnc(N)c23)ccc1N

EC50 (MCF7 [1]): 43.1 µM
Compound: CCOC(Cn1nc(-c2ccoc2)c2c(N)ncnc21)OCC

EC50 (MCF7 [1]): 13.5 µM
Compound: CN(C)CC1CCN(CCn2nc(C#Cc3ccccc3)c3c(N)ncnc32)CC1

EC50 (MCF7 [1]): 5 µM
Compound: CCOC(Cn1nc(C#Cc2ccccc2)c2c(N)ncnc21)OCC

EC50 (MDA-MB-231): 40.2 µM
Compound: COc1cc(-c2nn(CCN3CCC(N(C)C)CC3)c3ncnc(N)c23)ccc1NCc1ccccn1

IC50 [2]: > 10 µM
IC50 [3]: > 10 µM
IC50 [5]: > 10 µM
IC50 [6]: > 10 µM
Compound: Cc1ccc(-c2nn(CCN3CCC(CCN(C)C)CC3)c3ncnc(N)c23)cc1
Activity (MCF7 [4]): Active
